ChEMBL document CHEMBL1151464 (2008)

Legend:
Format in all cases: functional
Pseudomonas aeruginosa [1] = experiment: Antibacterial activity against Pseudomonas aeruginosa isolate 363 after 24 hrs by CLSI microdilution method
Acinetobacter baumannii [2] = experiment: Antibacterial activity against Acinetobacter baumannii isolate 905 after 24 hrs by CLSI microdilution method
Pseudomonas aeruginosa [3] = experiment: Antibacterial activity against Pseudomonas aeruginosa isolate 344 after 24 hrs by CLSI microdilution method
Acinetobacter baumannii [4] = experiment: Antibacterial activity against Acinetobacter baumannii isolate 929 after 24 hrs by CLSI microdilution method
Acinetobacter baumannii [5] = experiment: Antibacterial activity against Acinetobacter baumannii isolate 911 after 24 hrs by CLSI microdilution method
Acinetobacter baumannii [6] = experiment: Antibacterial activity against Acinetobacter baumannii isolate 901 after 24 hrs by CLSI microdilution method
Acinetobacter baumannii [7] = experiment: Antibacterial activity against Acinetobacter baumannii isolate 902 after 24 hrs by CLSI microdilution method
Pseudomonas aeruginosa [8] = experiment: Antibacterial activity against Pseudomonas aeruginosa isolate 330 after 24 hrs by CLSI microdilution method
Acinetobacter baumannii [9] = experiment: Antibacterial activity against Acinetobacter baumannii isolate 921 after 24 hrs by CLSI microdilution method
Acinetobacter baumannii [10] = experiment: Antibacterial activity against Acinetobacter baumannii isolate 920 after 24 hrs by CLSI microdilution method
Pseudomonas aeruginosa [11] = experiment: Antibacterial activity against Pseudomonas aeruginosa isolate 379 expressing VIM2 beta-lactamase after 24 hrs by CLSI microdilution method
Acinetobacter baumannii [12] = experiment: Antibacterial activity against Acinetobacter baumannii isolate 909 after 24 hrs by CLSI microdilution method
Pseudomonas aeruginosa [13] = experiment: Antibacterial activity against Pseudomonas aeruginosa isolate 368 after 24 hrs by CLSI microdilution method
Acinetobacter baumannii [14] = experiment: Antibacterial activity against Acinetobacter baumannii isolate 904 after 24 hrs by CLSI microdilution method
Acinetobacter baumannii [15] = experiment: Antibacterial activity against Acinetobacter baumannii isolate 894 after 24 hrs by CLSI microdilution method
Acinetobacter baumannii [16] = experiment: Antibacterial activity against Acinetobacter baumannii isolate 907 after 24 hrs by CLSI microdilution method
Pseudomonas aeruginosa [17] = experiment: Antibacterial activity against Pseudomonas aeruginosa isolate 319 after 24 hrs by CLSI microdilution method
Pseudomonas aeruginosa [18] = experiment: Antibacterial activity against Pseudomonas aeruginosa isolate 362 after 24 hrs by CLSI microdilution method
Pseudomonas aeruginosa [19] = experiment: Antibacterial activity against Pseudomonas aeruginosa isolate 371 after 24 hrs by CLSI microdilution method
Acinetobacter baumannii [20] = experiment: Antibacterial activity against Acinetobacter baumannii isolate 915 after 24 hrs by CLSI microdilution method
Acinetobacter baumannii [21] = experiment: Antibacterial activity against Acinetobacter baumannii isolate 910 after 24 hrs by CLSI microdilution method
Acinetobacter baumannii [22] = experiment: Antibacterial activity against Acinetobacter baumannii isolate 923 after 24 hrs by CLSI microdilution method
Pseudomonas aeruginosa [23] = experiment: Antibacterial activity against Pseudomonas aeruginosa isolate 353 after 24 hrs by CLSI microdilution method
Acinetobacter baumannii [24] = experiment: Antibacterial activity against Acinetobacter baumannii isolate 916 after 24 hrs by CLSI microdilution method
Acinetobacter baumannii [25] = experiment: Antibacterial activity against Acinetobacter baumannii isolate 882 after 24 hrs by CLSI microdilution method
Acinetobacter baumannii [26] = experiment: Antibacterial activity against Acinetobacter baumannii isolate 922 after 24 hrs by CLSI microdilution method
Pseudomonas aeruginosa [27] = experiment: Antibacterial activity against Pseudomonas aeruginosa isolate 364 after 24 hrs by CLSI microdilution method
Pseudomonas aeruginosa [28] = experiment: Antibacterial activity against Pseudomonas aeruginosa isolate 326 after 24 hrs by CLSI microdilution method
Acinetobacter baumannii [29] = experiment: Antibacterial activity against Acinetobacter baumannii isolate 887 after 24 hrs by CLSI microdilution method
Pseudomonas aeruginosa [30] = experiment: Antibacterial activity against Pseudomonas aeruginosa isolate 320 after 24 hrs by CLSI microdilution method
Pseudomonas aeruginosa [31] = experiment: Antibacterial activity against Pseudomonas aeruginosa isolate 349 after 24 hrs by CLSI microdilution method
Acinetobacter baumannii [32] = experiment: Antibacterial activity against Acinetobacter baumannii isolate 928 after 24 hrs by CLSI microdilution method
Acinetobacter baumannii [33] = experiment: Antibacterial activity against Acinetobacter baumannii isolate 918 after 24 hrs by CLSI microdilution method
Pseudomonas aeruginosa [34] = experiment: Antibacterial activity against Pseudomonas aeruginosa isolate 323 after 24 hrs by CLSI microdilution method
Acinetobacter baumannii [35] = experiment: Antibacterial activity against Acinetobacter baumannii isolate 917 after 24 hrs by CLSI microdilution method
Pseudomonas aeruginosa [36] = experiment: Antibacterial activity against Pseudomonas aeruginosa isolate 356 after 24 hrs by CLSI microdilution method
Acinetobacter baumannii [37] = experiment: Antibacterial activity against Acinetobacter baumannii isolate 895 after 24 hrs by CLSI microdilution method
Acinetobacter baumannii [38] = experiment: Antibacterial activity against Acinetobacter baumannii isolate 912 after 24 hrs by CLSI microdilution method
Acinetobacter baumannii [39] = experiment: Antibacterial activity against Acinetobacter baumannii isolate 892 after 24 hrs by CLSI microdilution method
Pseudomonas aeruginosa [40] = experiment: Antibacterial activity against Pseudomonas aeruginosa isolate 341 after 24 hrs by CLSI microdilution method
Pseudomonas aeruginosa [41] = experiment: Antibacterial activity against Pseudomonas aeruginosa isolate 366 after 24 hrs by CLSI microdilution method
Acinetobacter baumannii [42] = experiment: Antibacterial activity against Acinetobacter baumannii isolate 898 after 24 hrs by CLSI microdilution method
Acinetobacter baumannii [43] = experiment: Antibacterial activity against Acinetobacter baumannii isolate 908 after 24 hrs by CLSI microdilution method
Acinetobacter baumannii [44] = experiment: Antibacterial activity against Acinetobacter baumannii isolate 888 after 24 hrs by CLSI microdilution method
Pseudomonas aeruginosa [45] = experiment: Antibacterial activity against Pseudomonas aeruginosa isolate 345 after 24 hrs by CLSI microdilution method
Pseudomonas aeruginosa [46] = experiment: Antibacterial activity against Pseudomonas aeruginosa isolate 365 after 24 hrs by CLSI microdilution method
Pseudomonas aeruginosa [47] = experiment: Antibacterial activity against Pseudomonas aeruginosa isolate 358 after 24 hrs by CLSI microdilution method
Acinetobacter baumannii [48] = experiment: Antibacterial activity against Acinetobacter baumannii isolate 903 after 24 hrs by CLSI microdilution method
Pseudomonas aeruginosa [49] = experiment: Antibacterial activity against Pseudomonas aeruginosa isolate 359 after 24 hrs by CLSI microdilution method
Pseudomonas aeruginosa [50] = experiment: Antibacterial activity against Pseudomonas aeruginosa isolate 339 after 24 hrs by CLSI microdilution method
Acinetobacter baumannii [51] = experiment: Antibacterial activity against Acinetobacter baumannii isolate 890 after 24 hrs by CLSI microdilution method
Pseudomonas aeruginosa [52] = experiment: Antibacterial activity against Pseudomonas aeruginosa isolate 375 after 24 hrs by CLSI microdilution method
Pseudomonas aeruginosa [53] = experiment: Antibacterial activity against Pseudomonas aeruginosa isolate 338 after 24 hrs by CLSI microdilution method
Pseudomonas aeruginosa [54] = experiment: Antibacterial activity against Pseudomonas aeruginosa isolate 369 after 24 hrs by CLSI microdilution method
Acinetobacter baumannii [55] = experiment: Antibacterial activity against Acinetobacter baumannii isolate 889 after 24 hrs by CLSI microdilution method
Pseudomonas aeruginosa [56] = experiment: Antibacterial activity against Pseudomonas aeruginosa isolate 340 after 24 hrs by CLSI microdilution method
Acinetobacter baumannii [57] = experiment: Antibacterial activity against Acinetobacter baumannii isolate 919 after 24 hrs by CLSI microdilution method
Acinetobacter baumannii [58] = experiment: Antibacterial activity against Acinetobacter baumannii isolate 914 after 24 hrs by CLSI microdilution method
Acinetobacter baumannii [59] = experiment: Antibacterial activity against Acinetobacter baumannii isolate 885 after 24 hrs by CLSI microdilution method

Measured: MIC

COLISTIN
0.5 µg/mL: Pseudomonas aeruginosa [3] | Acinetobacter baumannii [38] | Pseudomonas aeruginosa [40] | Pseudomonas aeruginosa [41] | Acinetobacter baumannii [43] | Pseudomonas aeruginosa [49] | Pseudomonas aeruginosa [52] | Acinetobacter baumannii [57]
32 µg/mL: Acinetobacter baumannii [4]
2 µg/mL: Acinetobacter baumannii [7] | Pseudomonas aeruginosa [13] | Pseudomonas aeruginosa [17] | Acinetobacter baumannii [37] | Pseudomonas aeruginosa [46] | Acinetobacter baumannii [51] | Pseudomonas aeruginosa [54] | Acinetobacter baumannii [58] | Acinetobacter baumannii [59]
0.12 µg/mL: Acinetobacter baumannii [24]
4 µg/mL: Acinetobacter baumannii [2] | Acinetobacter baumannii [22] | Acinetobacter baumannii [26] | Acinetobacter baumannii [33] | Acinetobacter baumannii [35] | Acinetobacter baumannii [44]
16 µg/mL: Acinetobacter baumannii [14] | Acinetobacter baumannii [29] | Acinetobacter baumannii [39] | Acinetobacter baumannii [55]
8 µg/mL: Acinetobacter baumannii [5] | Acinetobacter baumannii [6] | Acinetobacter baumannii [10]
1 µg/mL: Pseudomonas aeruginosa [8] | Acinetobacter baumannii [9] | Pseudomonas aeruginosa [11] | Acinetobacter baumannii [12] | Acinetobacter baumannii [15] | Acinetobacter baumannii [16] | Pseudomonas aeruginosa [18] | Pseudomonas aeruginosa [19] | Acinetobacter baumannii [20] | Acinetobacter baumannii [25] | Pseudomonas aeruginosa [27] | Pseudomonas aeruginosa [28] | Pseudomonas aeruginosa [30] | Pseudomonas aeruginosa [31] | Acinetobacter baumannii [32] | Pseudomonas aeruginosa [36] | Acinetobacter baumannii [42] | Pseudomonas aeruginosa [45] | Pseudomonas aeruginosa [47] | Pseudomonas aeruginosa [50] | Pseudomonas aeruginosa [53] | Pseudomonas aeruginosa [56]
0.25 µg/mL: Pseudomonas aeruginosa [1] | Acinetobacter baumannii [21] | Pseudomonas aeruginosa [23] | Pseudomonas aeruginosa [34] | Acinetobacter baumannii [48]

C[C@@H](O)[C@H]1C(=O)N2C(C(=O)O)=C(S[C@@H]3CN[C@H](C(=O)N(C)C)C3)[C@H](C)[C@H]12 [MEROPENEM]
2 µg/mL: Acinetobacter baumannii [14]; isolate 904, 24 h | Acinetobacter baumannii [15]; isolate 894, 24 h | Pseudomonas aeruginosa [17]; isolate 319, 24 h | Pseudomonas aeruginosa [23]; isolate 353, 24 h | Pseudomonas aeruginosa [30]; isolate 320, 24 h | Pseudomonas aeruginosa [31]; isolate 349, 24 h | Acinetobacter baumannii [32]; isolate 928, 24 h | Pseudomonas aeruginosa [36]; isolate 356, 24 h | Acinetobacter baumannii [43]; isolate 908, 24 h | Pseudomonas aeruginosa [54]; isolate 369, 24 h
0.5 µg/mL: Acinetobacter baumannii [2]; isolate 905, 24 h | Pseudomonas aeruginosa [3]; isolate 344, 24 h | Acinetobacter baumannii [4]; isolate 929, 24 h | Pseudomonas aeruginosa [8]; isolate 330, 24 h | Acinetobacter baumannii [16]; isolate 907, 24 h | Pseudomonas aeruginosa [18]; isolate 362, 24 h | Acinetobacter baumannii [20]; isolate 915, 24 h | Acinetobacter baumannii [22]; isolate 923, 24 h | Acinetobacter baumannii [35]; isolate 917, 24 h | Pseudomonas aeruginosa [40]; isolate 341, 24 h | Pseudomonas aeruginosa [41]; isolate 366, 24 h | Pseudomonas aeruginosa [50]; isolate 339, 24 h | Pseudomonas aeruginosa [52]; isolate 375, 24 h | Acinetobacter baumannii [58]; isolate 914, 24 h
1 µg/mL: Pseudomonas aeruginosa [1]; isolate 363, 24 h | Acinetobacter baumannii [7]; isolate 902, 24 h | Acinetobacter baumannii [9]; isolate 921, 24 h | Acinetobacter baumannii [10]; isolate 920, 24 h | Acinetobacter baumannii [12]; isolate 909, 24 h | Acinetobacter baumannii [25]; isolate 882, 24 h | Acinetobacter baumannii [26]; isolate 922, 24 h | Acinetobacter baumannii [29]; isolate 887, 24 h | Pseudomonas aeruginosa [34]; isolate 323, 24 h | Acinetobacter baumannii [44]; isolate 888, 24 h | Pseudomonas aeruginosa [45]; isolate 345, 24 h | Pseudomonas aeruginosa [46]; isolate 365, 24 h | Acinetobacter baumannii [48]; isolate 903, 24 h | Acinetobacter baumannii [51]; isolate 890, 24 h | Pseudomonas aeruginosa [53]; isolate 338, 24 h | Acinetobacter baumannii [55]; isolate 889, 24 h | Pseudomonas aeruginosa [56]; isolate 340, 24 h | Acinetobacter baumannii [57]; isolate 919, 24 h
256 µg/mL: Pseudomonas aeruginosa [11]; isolate 379, 24 h
0.12 µg/mL: Pseudomonas aeruginosa [27]; isolate 364, 24 h | Pseudomonas aeruginosa [49]; isolate 359, 24 h
0.25 µg/mL: Pseudomonas aeruginosa [13]; isolate 368, 24 h | Acinetobacter baumannii [33]; isolate 918, 24 h
32 µg/mL: Acinetobacter baumannii [39]; isolate 892, 24 h
4 µg/mL: Acinetobacter baumannii [21]; isolate 910, 24 h | Acinetobacter baumannii [38]; isolate 912, 24 h
16 µg/mL: Acinetobacter baumannii [5]; isolate 911, 24 h | Pseudomonas aeruginosa [19]; isolate 371, 24 h | Pseudomonas aeruginosa [28]; isolate 326, 24 h | Pseudomonas aeruginosa [47]; isolate 358, 24 h
8 µg/mL: Acinetobacter baumannii [6]; isolate 901, 24 h | Acinetobacter baumannii [24]; isolate 916, 24 h | Acinetobacter baumannii [37]; isolate 895, 24 h | Acinetobacter baumannii [42]; isolate 898, 24 h | Acinetobacter baumannii [59]; isolate 885, 24 h
